Measurements from PubChem BioAssay (NCI).
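Values below derive from 48-hour exposures of cells grown in 96-well plates, with endpoints linearly interpolated between the two concentrations bracketing the appropriate inhibition level. TGI denotes the concentration required for complete inhibition of growth.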

Key:
Assay in all cases: NCI tumour cell line growth inhibition, 48 h
786-0 renal = tested on: 786-0 renal
A498 renal = tested on: A498 renal
ACHN renal = tested on: ACHN renal
BT-549 breast = tested on: BT-549 breast
CAKI-1 renal = tested on: CAKI-1 renal
COLO 205 colon = tested on: COLO 205 colon
DU-145 prostate = tested on: DU-145 prostate
EKVX NSCLC = tested on: EKVX NSCLC
HCC-2998 colon = tested on: HCC-2998 colon
HCT-116 colon = tested on: HCT-116 colon
HCT-15 colon = tested on: HCT-15 colon
HL-60(TB) leukemia = tested on: HL-60(TB) leukemia
HOP-62 NSCLC = tested on: HOP-62 NSCLC
HS 578T breast = tested on: HS 578T breast
HT29 colon = tested on: HT29 colon
IGROV1 ovarian = tested on: IGROV1 ovarian
K-562 leukemia = tested on: K-562 leukemia
KM12 colon = tested on: KM12 colon
LOX IMVI melanoma = tested on: LOX IMVI melanoma
MALME-3M melanoma = tested on: MALME-3M melanoma
MCF7 breast = tested on: MCF7 breast
MDA-MB-231 breast = tested on: MDA-MB-231 breast
MDA-MB-435 = tested on: MDA-MB-435
MOLT-4 leukemia = tested on: MOLT-4 leukemia
NCI-H226 lung = tested on: NCI-H226 lung
NCI-H23 lung = tested on: NCI-H23 lung
NCI-H460 lung = tested on: NCI-H460 lung
NCI-H522 lung = tested on: NCI-H522 lung
NCI/ADR-RES ovarian = tested on: NCI/ADR-RES ovarian
OVCAR-3 ovarian = tested on: OVCAR-3 ovarian
OVCAR-4 ovarian = tested on: OVCAR-4 ovarian
OVCAR-5 ovarian = tested on: OVCAR-5 ovarian
OVCAR-8 ovarian = tested on: OVCAR-8 ovarian
PC-3 prostate = tested on: PC-3 prostate
RPMI-8226 leukemia = tested on: RPMI-8226 leukemia
RXF 393 renal = tested on: RXF 393 renal
SF-268 CNS = tested on: SF-268 CNS
SF-295 CNS = tested on: SF-295 CNS
SK-MEL-2 melanoma = tested on: SK-MEL-2 melanoma
SK-MEL-28 melanoma = tested on: SK-MEL-28 melanoma
SK-MEL-5 melanoma = tested on: SK-MEL-5 melanoma
SN12C renal = tested on: SN12C renal
SNB-19 CNS = tested on: SNB-19 CNS
SNB-75 CNS = tested on: SNB-75 CNS
SR leukemia = tested on: SR leukemia
SW-620 colon = tested on: SW-620 colon
T-47D breast = tested on: T-47D breast
TK-10 renal = tested on: TK-10 renal
U251 CNS = tested on: U251 CNS
UACC-257 melanoma = tested on: UACC-257 melanoma
UACC-62 melanoma = tested on: UACC-62 melanoma
UO-31 renal = tested on: UO-31 renal
A549 NSCLC = tested on: A549 NSCLC
CCRF-CEM leukemia = tested on: CCRF-CEM leukemia
M14 melanoma = tested on: M14 melanoma
SF-539 CNS = tested on: SF-539 CNS
SK-OV-3 ovarian = tested on: SK-OV-3 ovarian

With `COc1ccc(-n2c(C)nc3ccc(NC(=S)Nc4ccccc4)cc3c2=O)cc1` the TGI (786-0 renal) was > 100 µM, the TGI (A498 renal) was > 100 µM and the TGI (ACHN renal) was > 100 µM. The TGI (BT-549 breast) was > 100 µM, the TGI (CAKI-1 renal) was > 100 µM and the TGI (COLO 205 colon) was > 100 µM. For the same compound, the TGI (DU-145 prostate) was > 100 µM, the TGI (EKVX NSCLC) was > 100 µM and the TGI (HCC-2998 colon) was > 100 µM. The TGI (HCT-116 colon) was > 100 µM, the TGI (HCT-15 colon) was > 100 µM and the TGI (HL-60(TB) leukemia) was > 100 µM. The TGI (HOP-62 NSCLC) was > 100 µM, the TGI (HS 578T breast) was > 100 µM and the TGI (HT29 colon) was > 100 µM. For the same compound, the TGI (IGROV1 ovarian) was > 100 µM, the TGI (K-562 leukemia) was > 100 µM and the TGI (KM12 colon) was > 100 µM. For the same compound, the TGI (LOX IMVI melanoma) was > 100 µM, the TGI (MALME-3M melanoma) was > 100 µM and the TGI (MCF7 breast) was > 100 µM. For the same compound, the TGI (MDA-MB-231 breast) was > 100 µM, the TGI (MDA-MB-435) was > 100 µM and the TGI (MOLT-4 leukemia) was 99.8 µM. For the same compound, the TGI (NCI-H226 lung) was > 100 µM, the TGI (NCI-H23 lung) was > 100 µM and the TGI (NCI-H460 lung) was > 100 µM. For the same compound, the TGI (NCI-H522 lung) was > 100 µM, the TGI (NCI/ADR-RES ovarian) was > 100 µM and the TGI (OVCAR-3 ovarian) was > 100 µM. The TGI (OVCAR-4 ovarian) was > 100 µM, the TGI (OVCAR-5 ovarian) was > 100 µM and the TGI (OVCAR-8 ovarian) was > 100 µM. The TGI (PC-3 prostate) was > 100 µM, the TGI (RPMI-8226 leukemia) was > 100 µM and the TGI (RXF 393 renal) was > 100 µM. For the same compound, the TGI (SF-268 CNS) was > 100 µM, the TGI (SF-295 CNS) was > 100 µM and the TGI (SK-MEL-2 melanoma) was > 100 µM. For the same compound, the TGI (SK-MEL-28 melanoma) was > 100 µM, the TGI (SK-MEL-5 melanoma) was > 100 µM and the TGI (SN12C renal) was > 100 µM. For the same compound, the TGI (SNB-19 CNS) was > 100 µM, the TGI (SNB-75 CNS) was > 100 µM and the TGI (SR leukemia) was > 100 µM. The TGI (SW-620 colon) was > 100 µM, the TGI (T-47D breast) was > 100 µM and the TGI (TK-10 renal) was > 100 µM. The TGI (U251 CNS) was > 100 µM, the TGI (UACC-257 melanoma) was > 100 µM and the TGI (UACC-62 melanoma) was > 100 µM. For the same compound, the TGI (UO-31 renal) was > 100 µM.

`CC(=O)Oc1cccc2c1C(=O)CCCC2` was tested, and the TGI (786-0 renal) was > 100 µM, the TGI (A498 renal) was > 100 µM and the TGI (A549 NSCLC) was > 100 µM. For the same compound, the TGI (ACHN renal) was > 100 µM, the TGI (BT-549 breast) was > 100 µM and the TGI (CAKI-1 renal) was > 100 µM. The TGI (CCRF-CEM leukemia) was > 100 µM, the TGI (COLO 205 colon) was > 100 µM and the TGI (DU-145 prostate) was > 100 µM. For the same compound, the TGI (EKVX NSCLC) was > 100 µM, the TGI (HCC-2998 colon) was > 100 µM and the TGI (HCT-116 colon) was > 100 µM. For the same compound, the TGI (HCT-15 colon) was > 100 µM, the TGI (HL-60(TB) leukemia) was > 100 µM and the TGI (HOP-62 NSCLC) was > 100 µM. For the same compound, the TGI (HS 578T breast) was > 100 µM, the TGI (HT29 colon) was > 100 µM and the TGI (IGROV1 ovarian) was > 100 µM. For the same compound, the TGI (K-562 leukemia) was > 100 µM, the TGI (KM12 colon) was > 100 µM and the TGI (LOX IMVI melanoma) was > 100 µM. The TGI (M14 melanoma) was > 100 µM, the TGI (MALME-3M melanoma) was > 100 µM and the TGI (MCF7 breast) was > 100 µM. For the same compound, the TGI (MDA-MB-231 breast) was > 100 µM, the TGI (MDA-MB-435) was > 100 µM and the TGI (MOLT-4 leukemia) was > 100 µM. For the same compound, the TGI (NCI-H226 lung) was > 100 µM, the TGI (NCI-H23 lung) was > 100 µM and the TGI (NCI-H460 lung) was > 100 µM. The TGI (NCI-H522 lung) was > 100 µM, the TGI (NCI/ADR-RES ovarian) was > 100 µM and the TGI (OVCAR-3 ovarian) was > 100 µM. For the same compound, the TGI (OVCAR-4 ovarian) was > 100 µM, the TGI (OVCAR-5 ovarian) was > 100 µM and the TGI (OVCAR-8 ovarian) was > 100 µM. For the same compound, the TGI (PC-3 prostate) was > 100 µM, the TGI (RXF 393 renal) was > 100 µM and the TGI (SF-268 CNS) was > 100 µM. The TGI (SF-295 CNS) was > 100 µM, the TGI (SF-539 CNS) was > 100 µM and the TGI (SK-MEL-2 melanoma) was > 100 µM. For the same compound, the TGI (SK-MEL-28 melanoma) was > 100 µM, the TGI (SK-MEL-5 melanoma) was > 100 µM and the TGI (SK-OV-3 ovarian) was > 100 µM. For the same compound, the TGI (SN12C renal) was > 100 µM, the TGI (SNB-19 CNS) was > 100 µM and the TGI (SNB-75 CNS) was 4.78 µM. For the same compound, the TGI (SR leukemia) was > 100 µM, the TGI (SW-620 colon) was > 100 µM and the TGI (T-47D breast) was > 100 µM. For the same compound, the TGI (TK-10 renal) was > 100 µM, the TGI (U251 CNS) was > 100 µM and the TGI (UACC-257 melanoma) was > 100 µM. The TGI (UACC-62 melanoma) was > 100 µM and the TGI (UO-31 renal) was > 100 µM.
